Reference: ChEMBL document CHEMBL5625198, “Design, synthesis and biological evaluation of novel 3-hydroxypyridin-4(1H)-ones based hybrids as Pseudomonas aeruginosa biofilm inhibitors” (Eur J Med Chem, 2023)
Activity calls are given as the source filed them. No cut-off for these calls is given here.

Experiments:
[1] = system: Pseudomonas aeruginosa; assay: Antibiofilm activity against wild-type Pseudomonas aeruginosa PAO1 assessed as inhibition rate at 10 uM incubated for 24 hrs by crystal violet staining based assay relative to control; assay type: functional
[2] = system: Pseudomonas aeruginosa; assay: Antibacterial activity against wild-type Pseudomonas aeruginosa PAO1 assessed as bacterial growth inhibition by CLSI based broth-microdilution method; assay type: functional
[3] = system: Pseudomonas aeruginosa; assay: Antibiofilm activity against wild-type Pseudomonas aeruginosa PAO1 incubated for 24 hrs by crystal violet staining based assay; assay type: functional, organism-based
[4] = system: Pseudomonas aeruginosa; assay: Antibiofilm activity against wild-type Pseudomonas aeruginosa PAO1 at 2.5 uM incubated for 24 hrs by crystal violet staining based assay relative to control; assay type: functional
[5] = system: Pseudomonas aeruginosa; assay: Antibiofilm activity against wild-type Pseudomonas aeruginosa PAO1 at 20 uM incubated for 24 hrs by confocal laser scanning microscopy; assay type: functional, organism-based
[6] = system: Pseudomonas aeruginosa; assay: Anti-virulence effect in Pseudomonas aeruginosa PAO1 assessed as decrease in elastase level incubated for 24 hrs by fluorescence based assay; assay type: functional, organism-based; conditions: dose 1.25-20 µM
[7] = system: Pseudomonas aeruginosa; assay: Anti-virulence effect in Pseudomonas aeruginosa PAO1 assessed as decrease in pyocyanin level incubated for 48 hrs by absorbance based assay; assay type: functional, organism-based; conditions: dose 1.25-20 µM
[8] = system: Pseudomonas aeruginosa; assay: Effect on rhamnolipid level in Pseudomonas aeruginosa PAO1 at 1.25 to 20 uM incubated for 24 hrs by absorbance based assay; assay type: functional, organism-based; conditions: dose 1.25-20 µM
[9] = Inhibition of quorum sensing system in Pseudomonas aeruginosa PAO1 harboring lasB-gfp assessed as decrease in lasB expression measured for 12 hrs by fluorescence based assay; conditions: dose 1.25-20 µM
[10] = Inhibition of quorum sensing system in Pseudomonas aeruginosa PAO1 harboring pqsA-gfp assessed as decrease in pqsA expression measured for 12 hrs by fluorescence based assay; conditions: dose 1.25-20 µM
[11] = system: Pseudomonas aeruginosa; assay: Effect on rhlA expression in Pseudomonas aeruginosa PAO1 harboring rhlA-gfp at 1.25 to 20 uM measured for 12 hrs by fluorescence based assay; assay type: functional; conditions: dose 1.25-20 µM
[12] = system: Pseudomonas aeruginosa; assay: Inhibition of swarming motility in Pseudomonas aeruginosa PAO1 incubated for 16 hrs; assay type: functional, organism-based; conditions: dose 1.25-20 µM
[13] = Cytotoxicity against African green monkey Vero cells assessed as cell viability at 3.125 to 50 uM incubated for 24 hrs by MTT assay; assay type: toxicity, cell-based; conditions: chlorocebus sabaeus, dose 3.125-50 µM
[14] = system: Vero; assay: Anti-virulence effect in African green monkey Vero cells infected with Pseudomonas aeruginosa assessed as increase in cell survival incubated for 24 hrs by MTT assay; assay type: functional, cell-based; conditions: Chlorocebus sabaeus, dose <= 20.0 µM
[15] = Anti-virulence effect in African green monkey Vero cells infected with Pseudomonas aeruginosa assessed as cell survival at 20 uM incubated for 24 hrs by MTT assay (reference value: 37.7 %); assay type: functional; conditions: Chlorocebus sabaeus, read-out: Activity
[16] = system: Pseudomonas aeruginosa; assay: Synergistic activity against Pseudomonas aeruginosa PAO1 assessed as reduction in ciprofloxacin MIC […] at 20 uM relative to control; assay type: functional; set-up: scale not given: the % may be the effect or the level left

| SMILES | MIC [2] [µM] | inhibition at 10 µM [1] [%] | further results |
| --- | --- | --- | --- |
| Cc1cc(=O)c(O)c(CNC(=O)CSc2nc3cc(OC(F)F)ccc3[nH]2)n1C | > 128 | 17.6 | – |
| Cn1cc(O)c(=O)cc1CNC(=O)CSc1nc2cc([N+](=O)[O-])ccc2[nH]1 | > 128 | -15.2 | – |
| COc1ccc2sc(SCC(=O)NCc3c(O)c(=O)cc(C)n3C)nc2c1 | > 128 | 7.27 | – |
| Cc1cc(=O)c(O)c(CNC(=O)CSc2nncs2)n1C | > 128 | 16.9 | – |
| Cc1cc(=O)c(O)c(CNC(=O)CSc2nc3ccc([N+](=O)[O-])cc3s2)n1C | > 128 | 45.5 | – |
| Cc1cc(=O)c(O)c(CNC(=O)CSc2nccn2C)n1C | > 128 | 30 | – |
| Cc1nnc(SCC(=O)NCc2c(O)c(=O)cc(C)n2C)s1 | > 128 | -10.2 | – |
| Cc1cc(C)nc(SCC(=O)NCc2c(O)c(=O)cc(C)n2C)n1 | > 128 | 22.6 | – |
| COc1ccc2nc(SCC(=O)NCc3c(O)c(=O)cc(C)n3C)sc2c1 | > 128 | -22.4 | – |
| CCOc1ccc2[nH]c(SCC(=O)NCc3c(O)c(=O)cc(C)n3C)nc2c1 | > 128 | -17.5 | – |
| Cc1cc(=O)c(O)c(CNC(=O)CSc2nc3cc([N+](=O)[O-])ccc3s2)n1C | > 128 | 10.1 | – |
| COc1ccc2[nH]c(SCC(=O)NCc3c(O)c(=O)cc(C)n3C)nc2c1 | > 128 | 16.3 | – |
| Cc1cc(=O)c(O)c(CNC(=O)CSc2nc3cc([N+](=O)[O-])ccc3[nH]2)n1C | > 128 | 51.5 | IC50 ([3]; PAO1, 24 h): 10.6 µM; Activity ([3]; dose 1.25-20 µM): Dose-Dependent Effect; inhibition at 2.5 µM [4]: > 30%; Activity [5]: Active; Activity [6]: Dose-Dependent Effect; Activity [7]: Dose-Dependent Effect; Activity [8]: inactive; inhibition [9]: Dose-Dependent Effect; inhibition [10]: Dose-Dependent Effect; Activity [11]: inactive; inhibition [12]: Dose-Dependent Effect; Activity [13]: Non-Toxic; Activity [14]: Dose-Dependent Effect; viability at 20 µM [15]: 71.5%; Activity [16]: ~50% |
| Cc1cc(=O)c(O)c(CNC(=O)CSc2ncc[nH]2)n1C | > 128 | 46.1 | – |
| Cc1cc(=O)c(O)c(CNC(=O)CSc2nccs2)n1C | > 128 | 46.4 | – |
| Cn1cc(O)c(=O)cc1CNC(=O)CSc1nc2ccccc2s1 | > 128 | -5.24 | – |
| Cn1cc(O)c(=O)cc1CNC(=O)CSc1nc2ccccc2[nH]1 | > 128 | – | – |
| Cn1cc(O)c(=O)cc1CNC(=O)CSc1nc2ccc([N+](=O)[O-])cc2s1 | > 128 | 29.1 | – |
| Cc1ccc2[nH]c(SCC(=O)NCc3cc(=O)c(O)cn3C)nc2c1 | > 128 | 3.29 | – |
| Cc1cc(=O)c(O)c(CNC(=O)CSc2nc3cc(C#N)ccc3[nH]2)n1C | > 128 | 41.3 | – |
| Cc1cc(=O)c(O)c(CNC(=O)CSc2nc3cc(C(F)(F)F)ccc3[nH]2)n1C | > 128 | – | – |

Second part, led by results:

| MIC [2] [µM] | SMILES | inhibition at 10 µM [1] [%] | further results |
| --- | --- | --- | --- |
| > 128 | Cc1cc(=O)c(O)c(CNC(=O)CSc2nc3cc(F)ccc3[nH]2)n1C | 34.7 | – |
| > 128 | Cc1cc(=O)c(O)c(CNC(=O)CSc2nc3c(C(C)(C)C)cccc3[nH]2)n1C | 14.5 | – |
| > 128 | Cc1cc(=O)c(O)c(CNC(=O)CSc2ccncc2)n1C | – | – |
| > 128 | Cc1cc(=O)c(O)c(CNC(=O)CSc2nc3cc(Cl)ccc3s2)n1C | 5.12 | – |
| > 128 | Cc1cc(=O)c(O)c(CNC(=O)CSc2ncccn2)n1C | 7.18 | – |
| > 128 | Cc1cc(=O)c(O)c(CNC(=O)CSc2nc3c(F)cccc3o2)n1C | 27.6 | – |
| > 128 | Cc1cc(=O)c(O)c(CNC(=O)CSc2ccccn2)n1C | – | – |
| > 128 | Cc1cc(=O)c(O)c(CNC(=O)CSc2ccc([N+](=O)[O-])cc2)n1C | 31.9 | – |
| > 128 | Cc1cccc2oc(SCC(=O)NCc3c(O)c(=O)cc(C)n3C)nc12 | – | – |
| > 128 | Cc1cc(=O)c(O)c(CNC(=O)CSc2nc3c(C(C)(C)C)cccc3o2)n1C | 19.4 | – |
| > 128 | COc1ccc2oc(SCC(=O)NCc3c(O)c(=O)cc(C)n3C)nc2c1 | 19.6 | – |
| > 128 | Cc1cc(=O)c(O)c(CNC(=O)CSc2nc3ccccc3[nH]2)n1C | 44.6 | – |
| > 128 | Cc1cc(=O)c(O)c(CNC(=O)CSc2nc3ccc(F)cc3o2)n1C | 25.4 | – |
| > 128 | Cc1cc(=O)c(O)c(CNC(=O)CSc2nc3cc(C(F)(F)F)ccc3o2)n1C | 39.5 | – |
| > 128 | Cc1cc(=O)c(O)c(CNC(=O)CSc2nc3cc(Cl)ccc3[nH]2)n1C | – | – |
| > 128 | Cc1cc(=O)c(O)c(CNC(=O)CSc2nc3ccccc3s2)n1C | 22.1 | – |
| > 128 | COc1ccc(SCC(=O)NCc2c(O)c(=O)cc(C)n2C)cc1 | -13.6 | – |
| > 128 | Cc1ccc2[nH]c(SCC(=O)NCc3c(O)c(=O)cc(C)n3C)nc2c1 | 7.4 | – |
| > 128 | Cc1ccc2oc(SCC(=O)NCc3c(O)c(=O)cc(C)n3C)nc2c1 | 45.8 | – |
| > 128 | Cc1cc(=O)c(O)c(CNC(=O)CSc2nc3cc(F)ccc3s2)n1C | 5 | – |
| > 128 | Cc1cc(=O)c(O)c(CNC(=O)CSc2nc3c([N+](=O)[O-])cccc3o2)n1C | 30.6 | – |
| > 128 | Cc1cccc2sc(SCC(=O)NCc3c(O)c(=O)cc(C)n3C)nc12 | 20.8 | – |
| > 128 | Cc1cc(=O)c(O)c(CNC(=O)CSc2nc3ccccc3o2)n1C | 26.2 | – |
| > 128 | Cc1ccc2nc(SCC(=O)NCc3c(O)c(=O)cc(C)n3C)sc2c1 | 31.2 | – |
| > 128 | Cc1cc(=O)c(O)c(CNC(=O)CSc2nc3cc(Cl)ccc3o2)n1C | 41.7 | – |
| > 128 | Cc1cc(=O)c(O)c(CNC(=O)CSc2nc3ccc(F)cc3s2)n1C | 40.4 | – |
